Laboratory results reported in PubChem BioAssay AID2060886 (Molecular Pharmacology Branch, DTP, NCI, 2025).
Values belong to the molecule of their own block, whether it stands above or below them.

System: 653999-131-R-J2-PDC complex spheroids, growth inhibition
Assay: Anticancer human tumor 653999-131-R-J2-PDC patient-derived lung adenocarcinoma cell line growth inhibition [RAS]
Conditions: for IC50: curve of first compound; for viability, T/C: stronger effect = lower value
Summary of the method: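 Tumour cells grown as complex spheroids with HUVEC endothelial cells and mesenchymal stem cells, treated with RAS pathway inhibitor combinations. Each agent spans half-log steps from near clinical Cmax, or 10 microM where Cmax is unknown.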

[1] = second compound 0.000949 µM, first compound 0.0316 µM
[2] = second compound 0.000949 µM, first compound 0.1 µM
[3] = second compound 0.000949 µM, first compound 0.316 µM
[4] = second compound 0.000949 µM, first compound 1 µM
[5] = second compound 0.003 µM, first compound 0.0316 µM
[6] = second compound 0.003 µM, first compound 0.1 µM
[7] = second compound 0.003 µM, first compound 0.316 µM
[8] = second compound 0.003 µM, first compound 1 µM
[9] = second compound 0.00949 µM, first compound 0.0316 µM
[10] = second compound 0.00949 µM, first compound 0.1 µM
[11] = second compound 0.00949 µM, first compound 0.316 µM
[12] = second compound 0.00949 µM, first compound 1 µM
[13] = second compound 0.03 µM, first compound 0.0316 µM
[14] = second compound 0.03 µM, first compound 0.1 µM
[15] = second compound 0.03 µM, first compound 0.316 µM
[16] = second compound 0.03 µM, first compound 1 µM
[17] = second compound 0.0949 µM, first compound 0.0316 µM
[18] = second compound 0.0949 µM, first compound 0.1 µM
[19] = second compound 0.0949 µM, first compound 0.316 µM
[20] = second compound 0.0949 µM, first compound 1 µM
[21] = second compound 0.3 µM, first compound 0.0316 µM
[22] = second compound 0.3 µM, first compound 0.1 µM
[23] = second compound 0.3 µM, first compound 0.316 µM
[24] = second compound 0.3 µM, first compound 1 µM
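Note: spheroids exposed to the agents for seven days before the readout.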

IC50 (second compound 0.000949 µM): 0.11 µM
IC50 (second compound 0.003 µM): 0.122 µM
IC50 (second compound 0.00949 µM): 0.0766 µM
IC50 (second compound 0.03 µM): 0.0814 µM
IC50 (second compound 0.0949 µM): 0.12 µM
IC50 (second compound 0.3 µM): 0.082 µM
SMILES: O=C(c1ccc(F)c(F)c1Nc1ccc(I)cc1F)N1CC(O)([C@@H]2CCCCN2)C1 + CCn1c(-c2cccnc2C(C)OC)c2c3cc(ccc31)N1CCOC(CC(NC(=O)C(C(C)C)N(C)C(=O)C3(F)CCN(C(=O)C#CC(C)(C)N(C)C)CC3)C(=O)N3CCCC(N3)C(=O)OCC(C)(C)C2)C1
viability, T/C (second compound 0.000949 µM, first compound 0.00316 µM): 83.6%
viability, T/C (second compound 0.000949 µM, first compound 0.01 µM): 74.5%
viability, T/C [1]: 68.5%
viability, T/C [2]: 55.8%
viability, T/C [3]: 20.6%
viability, T/C [4]: 12%
viability, T/C (second compound 0.003 µM, first compound 0.00316 µM): 82.5%
viability, T/C (second compound 0.003 µM, first compound 0.01 µM): 60%
viability, T/C [5]: 71.3%
viability, T/C [6]: 50.8%
viability, T/C [7]: 38.4%
viability, T/C [8]: 15.4%
viability, T/C (second compound 0.00949 µM, first compound 0.00316 µM): 92.9%
viability, T/C (second compound 0.00949 µM, first compound 0.01 µM): 65.2%
viability, T/C [9]: 63.7%
viability, T/C [10]: 52.3%
viability, T/C [11]: 30.1%
viability, T/C [12]: 13.2%
viability, T/C (second compound 0.03 µM, first compound 0.00316 µM): 77.4%
viability, T/C (second compound 0.03 µM, first compound 0.01 µM): 57.8%
viability, T/C [13]: 64.5%
viability, T/C [14]: 49.6%
viability, T/C [15]: 26.2%
viability, T/C [16]: 14.2%
viability, T/C (second compound 0.0949 µM, first compound 0.00316 µM): 62%
viability, T/C (second compound 0.0949 µM, first compound 0.01 µM): 68.1%
viability, T/C [17]: 66.5%
viability, T/C [18]: 51.7%
viability, T/C [19]: 31.4%
viability, T/C [20]: 13.5%
viability, T/C (second compound 0.3 µM, first compound 0.00316 µM): 65.3%
viability, T/C (second compound 0.3 µM, first compound 0.01 µM): 70.2%
viability, T/C [21]: 73.1%
viability, T/C [22]: 43.4%
viability, T/C [23]: 23.5%
viability, T/C [24]: 10.4%

IC50 (second compound 0.000949 µM): > 10 µM
IC50 (second compound 0.003 µM): > 10 µM
IC50 (second compound 0.00949 µM): < 0.0316 µM
IC50 (second compound 0.03 µM): < 0.0316 µM
IC50 (second compound 0.0949 µM): < 0.0316 µM
IC50 (second compound 0.3 µM): < 0.0316 µM
SMILES: Cc1nc(N2CCC3(CC2)COC(C)C3N)c(CO)nc1Sc1ccnc(N)c1Cl (stereo unspecified) + CCn1c(-c2cc(N3CCN(C)CC3)cnc2C(C)OC)c2c3cc(ccc31)-c1csc(n1)CC(NC(=O)C1CC1C)C(=O)N1CCCC(N1)C(=O)OCC(C)(C)C2
viability, T/C [1]: 80.8%
viability, T/C [2]: 91.1%
viability, T/C [3]: 76.1%
viability, T/C [4]: 80.9%
viability, T/C (second compound 0.000949 µM, first compound 3.16 µM): 64.2%
viability, T/C (second compound 0.000949 µM, first compound 10 µM): 76.8%
viability, T/C [5]: 60.9%
viability, T/C [6]: 47.7%
viability, T/C [7]: 64%
viability, T/C [8]: 54.8%
viability, T/C (second compound 0.003 µM, first compound 3.16 µM): 47%
viability, T/C (second compound 0.003 µM, first compound 10 µM): 54.1%
viability, T/C [9]: 43.1%
viability, T/C [10]: 34.9%
viability, T/C [11]: 37.4%
viability, T/C [12]: 41.1%
viability, T/C (second compound 0.00949 µM, first compound 3.16 µM): 24.6%
viability, T/C (second compound 0.00949 µM, first compound 10 µM): 29.7%
viability, T/C [13]: 36.7%
viability, T/C [14]: 30.2%
viability, T/C [15]: 21%
viability, T/C [16]: 19.1%
viability, T/C (second compound 0.03 µM, first compound 3.16 µM): 17.3%
viability, T/C (second compound 0.03 µM, first compound 10 µM): 15.9%
viability, T/C [17]: 21.4%
viability, T/C [18]: 27.6%
viability, T/C [19]: 14.4%
viability, T/C [20]: 14.2%
viability, T/C (second compound 0.0949 µM, first compound 3.16 µM): 11%
viability, T/C (second compound 0.0949 µM, first compound 10 µM): 11.9%
viability, T/C [21]: 23.4%
viability, T/C [22]: 18.5%
viability, T/C [23]: 20%
viability, T/C [24]: 12.7%
viability, T/C (second compound 0.3 µM, first compound 3.16 µM): 10.1%
viability, T/C (second compound 0.3 µM, first compound 10 µM): 7.03%

IC50 (second compound 0.000949 µM): 0.00361 µM
IC50 (second compound 0.003 µM): 0.0013 µM
IC50 (second compound 0.00949 µM): < 0.000949 µM
IC50 (second compound 0.03 µM): < 0.000949 µM
IC50 (second compound 0.0949 µM): < 0.000949 µM
IC50 (second compound 0.3 µM): < 0.000949 µM
SMILES: CCc1c2c(nc3ccc(O)cc13)-c1cc3c(c(=O)n1C2)COC(=O)[C@]3(O)CC + CCn1c(-c2cc(N3CCN(C)CC3)cnc2C(C)OC)c2c3cc(ccc31)-c1csc(n1)CC(NC(=O)C1CC1C)C(=O)N1CCCC(N1)C(=O)OCC(C)(C)C2
viability, T/C (second compound 0.000949 µM, first compound 0.000949 µM): 70.2%
viability, T/C (second compound 0.000949 µM, first compound 0.003 µM): 48.4%
viability, T/C (second compound 0.000949 µM, first compound 0.00949 µM): 42.2%
viability, T/C (second compound 0.000949 µM, first compound 0.03 µM): 25.1%
viability, T/C (second compound 0.000949 µM, first compound 0.0949 µM): 17.2%
viability, T/C (second compound 0.000949 µM, first compound 0.3 µM): 11.2%
viability, T/C (second compound 0.003 µM, first compound 0.000949 µM): 56%
viability, T/C (second compound 0.003 µM, first compound 0.003 µM): 34.1%
viability, T/C (second compound 0.003 µM, first compound 0.00949 µM): 30.6%
viability, T/C (second compound 0.003 µM, first compound 0.03 µM): 17.5%
viability, T/C (second compound 0.003 µM, first compound 0.0949 µM): 14.7%
viability, T/C (second compound 0.003 µM, first compound 0.3 µM): 10.1%
viability, T/C (second compound 0.00949 µM, first compound 0.000949 µM): 39.1%
viability, T/C (second compound 0.00949 µM, first compound 0.003 µM): 27.3%
viability, T/C (second compound 0.00949 µM, first compound 0.00949 µM): 18.9%
viability, T/C (second compound 0.00949 µM, first compound 0.03 µM): 14.1%
viability, T/C (second compound 0.00949 µM, first compound 0.0949 µM): 9.53%
viability, T/C (second compound 0.00949 µM, first compound 0.3 µM): 6.56%
viability, T/C (second compound 0.03 µM, first compound 0.000949 µM): 29.8%
viability, T/C (second compound 0.03 µM, first compound 0.003 µM): 18.2%
viability, T/C (second compound 0.03 µM, first compound 0.00949 µM): 17.8%
viability, T/C (second compound 0.03 µM, first compound 0.03 µM): 9.32%
viability, T/C (second compound 0.03 µM, first compound 0.0949 µM): 6.76%
viability, T/C (second compound 0.03 µM, first compound 0.3 µM): 6.96%
viability, T/C (second compound 0.0949 µM, first compound 0.000949 µM): 23.9%
viability, T/C (second compound 0.0949 µM, first compound 0.003 µM): 15.4%
viability, T/C (second compound 0.0949 µM, first compound 0.00949 µM): 11.4%
viability, T/C (second compound 0.0949 µM, first compound 0.03 µM): 9.9%
viability, T/C (second compound 0.0949 µM, first compound 0.0949 µM): 7.72%
viability, T/C (second compound 0.0949 µM, first compound 0.3 µM): 5.39%
viability, T/C (second compound 0.3 µM, first compound 0.000949 µM): 21.1%
viability, T/C (second compound 0.3 µM, first compound 0.003 µM): 14.4%
viability, T/C (second compound 0.3 µM, first compound 0.00949 µM): 11.6%
viability, T/C (second compound 0.3 µM, first compound 0.03 µM): 9.69%
viability, T/C (second compound 0.3 µM, first compound 0.0949 µM): 6.54%
viability, T/C (second compound 0.3 µM, first compound 0.3 µM): 4.62%
